Here are results for five compounds from patent publication US5614533A, “Substituted pipecolinic acid derivatives as HIV protease inhibitors” (Bio-Mega/Boehringer Ingelheim Research, Inc., priority 1994, dated 1997).

The structures appear in SMILES notation.

Assay [1] relates to HIV (H9/HTLV-IIIB) in C8166 cells. Briefly: plaque assay: inhibition of syncytia formation in HIV-infected C8166 cells. In kind it is cell-based. To be noted: Human immunodeficiency virus 1, IIIB, 72 h, 50% inhibition of syncytia formation. In outline: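 C8166 cells (5×10^4/well) infected with 50× TCID50 H9/HTLV-IIIB in HEPES-buffered RPMI 1640 (pH 7.2), 10% FCS, with test compound in triplicate; 72 h at 37°, 5% CO2. Syncytia centers counted by phase-contrast microscopy; EC50 from percent inhibition versus serial dilutions by non-linear regression.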

The target of assay [2] is T1, HIV protease (Human immunodeficiency virus type 1 group M subtype B, UniProt P04585).
T1 construct: HIV protease was expressed in E. coli; made in house; host or cells: E. coli (plasmid pBRT1 prt+)
Briefly: Recombinant HIV Protease HPLC Assay. To be noted: 37°, 30 min, pH 5.5. The class given is biochemical. The method in brief: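 Recombinant protease from E. coli (pBRT1 prt+ construct), purified and diluted 1/38 for use, cleaves the decapeptide substrate VSFNFPQITL-NH2, containing an HIV polyprotein cleavage site. Inhibition of cleavage is monitored by HPLC.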

In assay [1] (Table V), `CC(C)[C@H](NC(=O)c1ccc2ccccc2n1)C(=O)N[C@@H](Cc1ccccc1)[C@H](O)CN1CC[C@@H](S(=O)(=O)Cc2ccncc2)C[C@H]1C(=O)NC(C)(C)C` [Table V, entry 19, N-tert-butyl-1-{2(S)(R)-hydroxy-4-phenyl-3(S)-{{N-(2-quinolylinylcarbonyl)valyl}amino}butyl}-4(R)-{(4-pyridinylmethyl)sulfonyl}piperidine-2-carboxamide] registered a half-maximal effective concentration (EC50) of 73 nM. The IC50 in assay [2] (Table V) was 4.6 nM.

Compound `Cc1cc(C)nc(S[C@@H]2CCN(C[C@@H](O)[C@H](Cc3ccccc3)NC(=O)[C@@H](NC(=O)OCc3ccccc3)C(C)C)[C@H](C(=O)NC(C)(C)C)C2)n1` [Table IV, entry 36, N-tert-butyl-1-{3(S)-{{N-(benzyloxycarbonyl)valy}amino}-2(R)-hydroxy-4-phenylbutyl}-4(R)-(4,6-dimethyl-2-pyrimidinylthio)piperidine-2(S)-carboxamide] gave an EC50 in assay [1] (Table IV) of 9 nM. In addition, in assay [2] (Table IV), the IC50 was 3 nM.

The compound `Cc1cccc(C)c1OCC(=O)N[C@@H](Cc1ccccc1)[C@H](O)CN1CC[C@@H](Sc2ccncc2)C[C@H]1C(=O)NC(C)(C)C` [Table VII, entry 4, N-tert-butyl-1-{3(S)-{{(2,6-dimethylphenoxy)acetyl}amino}-2(R)-hydroxy-4-phenylbutyl}-4(R)-(4-pyridinylthio)piperidine-2(S)-carboxamide] displayed an EC50 in assay [1] (Table VII) of 20 nM. Moreover, the IC50 in assay [2] (Table VII) was determined as 3.1 nM.

Take `CC(C)(C)NC(=O)[C@@H]1C[C@H](Sc2ccncc2)CCN1C[C@@H](O)[C@H](Cc1ccccc1)NC(=O)c1ccc(Cl)cc1Cl` [Table VII, entry 6, N-tert-butyl-1-{3(S)-{{(2,4-dichlorophenyl)carbonyl}amino}-2(R)-hydroxy-4-phenylbutyl}-4(R)-(4-pyridinylthio)piperidine-2(S)-carboxamide]: in assay [1] (Table VII), the EC50 turned out to be 340 nM. For the same compound, the IC50 in assay [2] (Table VII) came to 5.4 nM.

For `CC(C)[C@H](NC(=O)c1ccc2ccccc2n1)C(=O)N[C@@H](Cc1ccccc1)[C@H](O)CN1CC[C@@H](OCc2ccncc2)C[C@H]1C(=O)NC(C)(C)C` [Table V, entry 16, N-tert-butyl-1-{2(S)(R)-hydroxy-4-phenyl-3(S)-{{N-(2-quinolylinylcarbonyl)valyl}amino}butyl}-4(R)-(4-pyridinylmethoxy)piperidine-2-carboxamide], in assay [1] (Table V), the half-maximal effective concentration (EC50) amounted to 22 nM. The 50% inhibitory concentration (IC50) in assay [2] (Table V) was 4.2 nM.
